Consider 1 substance from patent US6794491B1, “Polypeptides, their production and use” (Takeda Chemical Industries, Ltd., priority 1995, dated 2004).

Assay [1] can be described thus: blood pressure after injection into the area postrema of medula oblongata. In kind it is in vivo, male Wistar rats. The settings on record: 10 nmol into the area postrema of medula oblongata, conscious rats. The protocol:
The inventors explored the influence of injection of 19P2-L31 into the area postrema of medula oblongata on blood pressure. Mature male Wistar rats (body weights at operation: ca 300 g) were anesthetized with pentobarbital 50 mg/kg i.p. and each animal was immobilized in a rat brain stereotaxic apparatus. The incisor bar was lowered by 3.3 mm from the interaural line. The skull was exposed, and using a dental drill a hole was made on the skull for implantation of a guide cannula. In addition, anchor screws were buried in two positions around the drilled hole. A stainless-steel guide cannula, AG-12 (0.4 mm inside dia., 0.5 mm out. dia., EICOM), was inserted in such a manner that its leading end would be situated in the upper part of the area postrema. […] With reference to the atlas of Paxinos and Watson (1986), the stereotaxic coordinates were AP: −6.0 mm (from interaural line), L: 0.0 mm, and H: +1.5 mm (from interaural line). […]
After waiting overnight postoperatively, the polyethylene tube was connected to a transducer (Spectramed) and the blood pressure was measured. After blood pressure readings became steady, the cap nut and dummy cannula were removed from the rat skull and, instead, a stainless steel microinjection cannula (0.17 mm in. dia., 0.35 mm out. dia., EICOM) connected to a Teflon tube (50 cm long, 0.1 mm in. dia., 0.4 mm out. dia., EICOM) was inserted. […]

A short description of assay [2]: plasma pituitary hormone level after administration into the third ventricle, pentobarbital anesthesia. In kind it is in vivo, male Wistar rats. The protocol: The inventors explored the effect of 19P2-L31 administered into the third ventricle on pituitary hormone levels in the plasma. Mature male Wistar rats (body weights at operation: 290-350 g) were anesthetized with pentobarbital, 50 mg/kg i.p., and each immobilized in a rat brain stereotaxic apparatus. The incisor bar was set 3.3 mm lower from the interaural line. The skull was exposed, and using a dental drill a hole was made on the bone for implantation of a guide cannula. In addition, an anchor screw was buried in one position around the hole. A stainless-steel guide cannula, AG-12 (0.4 mm in. dia., 0.5 mm out. dia., EICOM), was inserted in such a manner that its tip would be situated in the upper part of the third ventricle. With reference to the atlas of Paxinos and Watson (1986), the stereotaxic coordinates were AP: +7.2 mm (from interaural line), L: 0.0 mm, and H: +2.0 mm (from interaural line). The guide cannula was secured to the skull using an instant adhesive, a dental cement, and an anchor piece. A stainless-steel dummy cannula, AD-12 (0.35 mm out. dia., EICOM), was then passed through the guide cannula and locked in position with a cap nut (EICOM). After the operation the rats were housed in individual cages and kept for at least 3 days for recuperation before starting the experiment.
The operated rat was anesthetized with pentobarbital 50 mg/kg i.p. and immobilized in dorsal position. After the bilateral jugular veins were exposed, 400 μl of blood was drawn using a 1 ml tuberculin syringe and a 24-G needle (both by Termo). To prevent clotting, the syringe was filled with 20 μl of saline containing 200 U/ml of heparin beforehand. The cap nut and dummy cannula were removed from the rat skull and, instead, a stainless steel microinjection cannula (0.17 mm in. dia., 0.35 mm out. dia., EICOM) connected to Teflon tube (50 cm long, 0.1 mm in. dia., 0.4 mm out. dia., EICOM) was inserted. The length of the microinjection cannula was adjusted beforehand so that its tip would be emergent from the guide cannula by 1 mm. One end of the Teflon tube was connected to a microsyringe pump and either PBS or 19P2-L31 dissolved in PBS was injected, in a total volume of 10 μl, into the third ventricle at a flow rate of 2.5 μl/min. After a standby time of 1 minute following infusion, the microinjection cannula was disconnected and the dummy cannula was reinstated and locked in position with a cap nut. Immediately before initiation of intraventricular administration and 10, 20, 30, 40, and 60 minutes after initiation of administration, 400 μl portions of blood were drawn from the jugular vein. Each blood sample was centrifuged (5,000 rpm, 10 min.) with a high-speed refrigerated microcentrifuge (MR-150, Tommy Seiko) and the supernatant (plasma) was recovered. The amounts of pituitary hormones [prolactin, luteinizing hormone (LH), adrenocorticotropic hormone (ACTH), thyroid-stimulating hormone (TSH), and growth hormone (GH)] in the plasma were respectively determined by radioimmunoassays.
The results were expressed as a mean±S.E.M. To test for significant difference between the group treated with 19P2-L31 dissolved in PBS and the control group treated with PBS alone, Student's t-test was used. According to the two-tailed test, p<0.05 was assumed to be the minimal level of significance.

Where [3] appears, read: 50 nmol into the third ventricle, anesthetized rats.

Where no end group is shown, it is not given here.

As for “Ser-Arg-Ala-His-Gln-His-Ser-Met-Glu-Ile-Arg-Thr-Pro-Asp-Ile-Asn-Pro-Ala-Trp-Tyr-Ala-Gly-Arg-Gly-Ile-Arg-Pro-Val-Gly-Arg-Phe-NH2 (SRAHQHSMEIRTPDINPAWYAGRGIRPVGRF-NH2) [19P2-L31, synthetic ligand polypeptide]”, in assay [1], the blood pressure result is recorded as “caused an elevation of blood pressure”. Further, in assay [2] (setting [3]), the “plasma ACTH” value is on record as “none showed significant changes”, the “plasma LH” value is “none showed significant changes”, the “plasma TSH” value is “none showed significant changes” and the plasma prolactin result is “none showed significant changes”. For the same substance, in assay [2] (50 nmol into the third ventricle, anesthetized rats, 10, 30, and 40 minutes after administration, not statistically significant), the “plasma GH level” value was “Tendencies toward decrease”. In addition, the “plasma GH level” value in assay [2] (50 nmol into the third ventricle, anesthetized rats, 20 minutes after administration, versus control) is on record as “significantly decreased”. In addition, the “plasma GH level” value in assay [2] (50 nmol into the third ventricle, anesthetized rats, 60 minutes after administration) is recorded as “no difference from the control group”. Besides, the “plasma growth hormone level” value in assay [2] (injected into the third ventricle of rats, summary) is listed as “depressed”.
